Results published in publication PMC6020762, “An Integrative Volatile Terpenoid Profiling and Transcriptomics Analysis for Gene Mining and Functional Characterization of AvBPPS and AvPS Involved in the Monoterpenoid Biosynthesis in Amomum villosum” (Frontiers in Plant Science, 2018).

Columns and labels:
AvBPPS (AvTPS3) [1] = biological target: T1, AvBPPS (AvTPS3) (Wurfbainia villosa, UniProt A0A2Z4K4Q8); test: GC-MS product analysis; format: biochemical; settings: 25 mM HEPES pH 7.0, 5 mM MgCl2, 5 mM DTT, 30 °C, 2 h
T1 construct: gene TPS3; predicted 25-residue N-terminal transit peptide removed (full ORF 596 aa); E. coli Rosetta (DE3); Ni column
T1 sequence (A0A2Z4K4Q8 26-596): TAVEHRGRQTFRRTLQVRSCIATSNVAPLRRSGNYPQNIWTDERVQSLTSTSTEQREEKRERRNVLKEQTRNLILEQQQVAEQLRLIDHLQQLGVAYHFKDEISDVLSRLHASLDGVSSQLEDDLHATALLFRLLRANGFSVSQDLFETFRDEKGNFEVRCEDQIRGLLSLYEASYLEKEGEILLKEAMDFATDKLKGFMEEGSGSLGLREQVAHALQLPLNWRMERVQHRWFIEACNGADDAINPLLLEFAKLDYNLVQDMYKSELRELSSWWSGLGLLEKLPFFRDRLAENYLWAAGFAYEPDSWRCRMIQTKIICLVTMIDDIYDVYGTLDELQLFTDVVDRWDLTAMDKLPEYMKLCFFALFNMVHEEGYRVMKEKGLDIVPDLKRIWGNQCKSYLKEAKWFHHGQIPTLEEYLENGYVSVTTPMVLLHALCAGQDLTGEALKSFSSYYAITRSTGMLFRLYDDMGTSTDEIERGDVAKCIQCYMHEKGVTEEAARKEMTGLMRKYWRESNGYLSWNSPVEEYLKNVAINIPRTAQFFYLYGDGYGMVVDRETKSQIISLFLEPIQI

AvBPPS (AvTPS3) [2] = biological target: T1, AvBPPS (AvTPS3); test: GC-MS of borneol after alkaline phosphatase dephosphorylation; format: biochemical; settings: from GPP; 25 mM HEPES pH 7.0, 5 mM MgCl2, 5 mM DTT, 30 °C, 1 h, then alkaline phosphatase 37 °C
[3] = substrate: CC(C)=CCC/C(C)=C/COP(=O)(O)OP(=O)(O)O; test: GC-MS product assay, kinetic analysis; format: biochemical, Wurfbainia villosa; settings: Mg2+ present

## CC(C)=CCC/C(C)=C/COP(=O)(O)OP(=O)(O)O [GPP]
AvBPPS (AvTPS3) [1]
  GC-MS product analysis: AvTPS3 was found to catalyze GPP to produce three monoterpene compounds

## CC1(C)C2CCC1(C)C(OP(=O)(O)OP(=O)(O)O)C2 (stereo not drawn) [bornyl diphosphate]
AvBPPS (AvTPS3) [2]
  GC-MS of borneol after alkaline phosphatase dephosphorylation: we identified AvTPS3 as bornyl diphosphate synthase (AvBPPS) according to its most abundant product

B1: AvPS (AvTPS1) (Wurfbainia villosa) (protein)
chain: AAEESQSLSSTTSRRSGNYQPSIWTHDRIQSLTLSHAAADEEDHAEEIKLLKYQTSKLMEEKKGRVEEQLQLIDHLQQLGVAYHFKDEIKDTLRGFHASFEDVSLQLRDNLHASALLFRLLRENGFSVSEDIFKKFKDEKAGQFEDRLQSQAEGLLSLYEASYLEKDGEELLHEAREFTTKHLKNLLEEEGSLKPGLIREQVAHALELPLNWRFQRLHTKWFIGAWQRDPAMDPALLGLAKLDFNALQNIYKRELKEASRWWTDLGLPQKLPFFRDRLTENYLWTVGWAFEPDSWAFRELQTKINCFITLIDDVYDVYGTLDELELFTDIMERWDVNSIDKLPEYMKICFLAVFNTVNDAGYEVIRDKGVDIIPYLKRAWAELCKMYMREARWYHAGYTPTLDEYLDGAWISISGALILSTAYCMGNDLTKDDLDKFSTYPAVMHPSCMLLRLHDDFGTSTDELARGDVQKAVQCCMHERKVPEAVAREHIMQVMEAKWRLLNGNRVATSSFEEYFLNVAINIPRSAQFFYGQGDGYGKSDGETKKQVISLLIEPVQF
notes: predicted 42-residue N-terminal transit peptide removed (full ORF 600 aa); E. coli Rosetta (DE3); Ni column
[3]
  Km: 1.99 µM
